Here are results for 14 compounds from patent US20100216779A1 (GLAXOSMITHKLINE LLC, priority 2007, published 2010).

Molecules are shown by their SMILES.

Format in all cases: cell-based
One assay relates to COLO205 (colon). In words: Inhibition of cell proliferation, CellTiter-Glo, COLO205. The settings on record: Homo sapiens, COLO 205, 72 h. The procedure:
C. Inhibition of Cell Proliferation
Cell proliferation was measured by either CellTiter-Glo (measures cellular ATP level as a surrogate for total cell number) or by InCell analyzer (counts number of nuclei as a measure of cell number). For CellTiter-Glo assay, exponentially growing cell lines of different tumor origins, cultured in appropriate media containing 10% fetal bovine serum at 37° C. in a 5% CO2 incubator, were plated at low density (less than 2000 cells/well) in 96-well plates. […] Several wells were left untreated as a control. Seventy two hours post-treatment, cell numbers were determined using 50-100 ul per well of CellTiter-Glo (Promega #G7573). Plates were incubated at 37° C. for 30 minutes and the chemiluminescent signal was read on the Victor V or Envison 2100 reader. […]
For orientation: In ATP-based viability assays light output follows the ATP content of the culture.

Assay [1] deals with T1, human IGF-1R (NIH-3T3 cells over expressing human IGF-1R) (Homo sapiens, UniProt P08069).
T1 construct: expressed in transfected cells; host or cells: NIH-3T3 (mouse fibroblasts)
In words: IGF-1R cellular autophosphorylation (DELFIA). The note with it: IGF-1 stimulated. The procedure: (§1) D. IGF-1R and IR Cellular Autophosphorylation (DELFIA)
(§2) NIH-3T3 cells over expressing human IGF-1R or IR were plated in 96-well plates (10,000 cells/well) in culture media containing 10% fetal bovine serum and incubated at 37° C. in a 5% CO2 incubator. Twenty four hours post-plating, cells were treated with different concentrations of test compounds ranging from 30 uM to 1.5 nM. Two hours after compound addition, cells were stimulated with either human IGF-1 (30 ng/mL) or insulin (3 ug/mL) for 15 minutes. Cell lysates are analyzed for phosphorylated receptors using dissociation enhanced lanthanide fluor-immuno assay (DELFIA) with anti-IGF-1R (MAB391, R&D Systems, Minneapolis, Minn.) or anti-IR[…](sc-711, Santa Cruz Biotechnology, Santa Cruz, Calif.) capture antibody and europium-labeled anti-pTyr antibody (Eu-N1 PT66, Perkin Elmer, Waltham, Mass.) for detection. The fluorescence signal for cells treated with compounds was expressed as percent relative to 100% stimulation (IGF-1 or insulin stimulated signal). […]

Assay [2] addresses T2, IR (NIH-3T3 cells over expressing human IGF-1R or IR) (Homo sapiens, UniProt P06213).
T2 construct: expressed in transfected cells; host or cells: NIH-3T3 (mouse fibroblasts)
In words: IR cellular autophosphorylation (DELFIA). The settings on record: NIH-3T3 cells over expressing IR, insulin stimulated. As for the experimental part: as §1, §2

T1 sequence (P08069 31-1367): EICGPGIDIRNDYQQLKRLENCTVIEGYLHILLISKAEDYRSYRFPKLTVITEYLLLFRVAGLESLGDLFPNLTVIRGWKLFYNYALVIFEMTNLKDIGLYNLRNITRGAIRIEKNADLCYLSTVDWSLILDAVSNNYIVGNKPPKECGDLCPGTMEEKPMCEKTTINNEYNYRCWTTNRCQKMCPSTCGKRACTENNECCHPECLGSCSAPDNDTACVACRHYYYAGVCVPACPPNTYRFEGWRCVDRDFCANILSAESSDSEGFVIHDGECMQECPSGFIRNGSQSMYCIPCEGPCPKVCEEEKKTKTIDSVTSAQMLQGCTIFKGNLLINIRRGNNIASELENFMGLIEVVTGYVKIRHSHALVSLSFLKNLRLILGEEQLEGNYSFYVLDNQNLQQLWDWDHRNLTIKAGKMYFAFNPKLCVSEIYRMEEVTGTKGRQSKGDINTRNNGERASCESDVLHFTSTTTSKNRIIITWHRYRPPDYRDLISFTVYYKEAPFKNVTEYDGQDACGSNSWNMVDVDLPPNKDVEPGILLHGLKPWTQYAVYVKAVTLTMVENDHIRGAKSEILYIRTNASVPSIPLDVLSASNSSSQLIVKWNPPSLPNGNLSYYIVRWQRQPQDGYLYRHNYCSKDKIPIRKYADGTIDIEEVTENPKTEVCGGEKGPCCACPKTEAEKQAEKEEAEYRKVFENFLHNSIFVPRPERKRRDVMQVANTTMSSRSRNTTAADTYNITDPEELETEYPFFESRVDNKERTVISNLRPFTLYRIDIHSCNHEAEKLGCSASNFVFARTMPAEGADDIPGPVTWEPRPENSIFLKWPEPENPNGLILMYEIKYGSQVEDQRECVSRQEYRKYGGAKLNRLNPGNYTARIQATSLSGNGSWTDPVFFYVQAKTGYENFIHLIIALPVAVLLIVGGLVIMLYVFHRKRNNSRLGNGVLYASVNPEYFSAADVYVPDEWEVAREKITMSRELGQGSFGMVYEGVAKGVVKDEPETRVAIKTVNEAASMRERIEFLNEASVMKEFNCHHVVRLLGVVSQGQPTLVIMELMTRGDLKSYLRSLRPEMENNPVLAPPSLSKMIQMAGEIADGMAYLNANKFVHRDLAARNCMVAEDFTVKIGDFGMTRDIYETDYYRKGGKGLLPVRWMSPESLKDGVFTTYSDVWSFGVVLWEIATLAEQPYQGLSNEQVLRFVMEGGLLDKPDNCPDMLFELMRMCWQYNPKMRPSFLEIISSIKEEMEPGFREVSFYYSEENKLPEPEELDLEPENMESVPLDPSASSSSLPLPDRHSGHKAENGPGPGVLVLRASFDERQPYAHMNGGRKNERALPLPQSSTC
T2 sequence (P06213 28-1382): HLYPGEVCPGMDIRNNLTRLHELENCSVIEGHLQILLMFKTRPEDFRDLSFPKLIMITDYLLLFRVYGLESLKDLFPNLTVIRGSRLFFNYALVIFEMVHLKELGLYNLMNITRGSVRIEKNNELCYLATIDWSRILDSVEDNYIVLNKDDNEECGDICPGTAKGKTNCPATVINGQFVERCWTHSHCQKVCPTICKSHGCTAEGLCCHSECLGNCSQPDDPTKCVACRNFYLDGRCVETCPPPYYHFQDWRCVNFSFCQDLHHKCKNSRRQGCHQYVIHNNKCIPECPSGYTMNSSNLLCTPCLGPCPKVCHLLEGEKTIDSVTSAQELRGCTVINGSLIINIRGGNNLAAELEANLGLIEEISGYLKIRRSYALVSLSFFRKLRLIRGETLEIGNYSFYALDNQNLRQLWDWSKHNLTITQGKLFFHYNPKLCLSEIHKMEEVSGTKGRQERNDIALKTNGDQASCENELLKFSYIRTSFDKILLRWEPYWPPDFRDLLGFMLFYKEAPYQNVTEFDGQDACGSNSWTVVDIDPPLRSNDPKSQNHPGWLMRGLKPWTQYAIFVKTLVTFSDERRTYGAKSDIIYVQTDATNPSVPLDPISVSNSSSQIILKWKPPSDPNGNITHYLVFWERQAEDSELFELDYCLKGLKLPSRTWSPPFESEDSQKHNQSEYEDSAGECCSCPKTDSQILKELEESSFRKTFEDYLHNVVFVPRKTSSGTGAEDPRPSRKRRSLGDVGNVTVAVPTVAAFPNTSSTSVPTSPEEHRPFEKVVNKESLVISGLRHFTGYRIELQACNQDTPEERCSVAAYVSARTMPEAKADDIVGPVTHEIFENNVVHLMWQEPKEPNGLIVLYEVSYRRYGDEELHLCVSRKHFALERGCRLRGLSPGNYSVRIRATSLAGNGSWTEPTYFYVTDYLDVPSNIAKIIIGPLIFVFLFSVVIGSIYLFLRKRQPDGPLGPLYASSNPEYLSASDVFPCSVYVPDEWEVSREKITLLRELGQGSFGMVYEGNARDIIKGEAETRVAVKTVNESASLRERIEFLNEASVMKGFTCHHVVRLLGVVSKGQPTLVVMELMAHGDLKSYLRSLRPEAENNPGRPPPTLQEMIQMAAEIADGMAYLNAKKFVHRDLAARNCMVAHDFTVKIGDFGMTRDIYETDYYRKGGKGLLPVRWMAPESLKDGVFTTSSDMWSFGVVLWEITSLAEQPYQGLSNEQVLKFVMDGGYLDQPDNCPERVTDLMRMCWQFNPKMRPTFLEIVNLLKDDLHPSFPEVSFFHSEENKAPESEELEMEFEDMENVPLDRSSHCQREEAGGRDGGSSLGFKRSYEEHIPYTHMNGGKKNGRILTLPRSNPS

Consider `COc1cc(N2CCC(N3C[C@@H]4C[C@H]3CN4CCF)CC2)ccc1Nc1nccc(-c2c(-c3cccc(C(=O)Nc4c(F)cccc4F)c3)nc3ccccn23)n1` [Example 86, N-(2,6-difluorophenyl)-3-[3-(2-{[4-{4-[(1 S,4S)-5-(2-fluoroethyl)-2,5-diazabicyclo-[2.2.1]hept-2-yl]-1-piperidinyl}-2-(methyloxy)phenyl]amino}-4-pyrimidinyl)imidazo[1,2-a]pyridin-2-yl]benzamide], for which the results for the IC50 (in the assay on COLO205 (colon); in assay [1]; in assay [2]) were 250 to 1000 nM, less than 100 nM and less than 100 nM, respectively.

`CCOc1cc(N2CCC(N3CCCCC3)CC2)ccc1Nc1nccc(-c2c(-c3cccc(C(=O)Nc4c(F)cccc4F)c3)nc3ccccn23)n1` [Example 34, 3-[3-(2-{[4-(1,4′-bipiperidin-1′-yl)-2-(ethyloxy)phenyl]amino}-4-pyrimidinyl)imidazo[1,2-a]pyridin-2-yl]-N-(2,6-difluorophenyl)benzamide]: the figures for the IC50 (with COLO205 (colon); in assay [1]; in assay [2]) were 250 to 1000 nM, less than 100 nM and 100 to 500 nM, respectively.

As to `COc1cc(-c2nnc(CN(C)C)o2)ccc1Nc1nccc(-c2c(-c3ccc(OC)c(C(=O)Nc4c(F)cccc4F)c3)nc3ccccn23)n1` [Example 26, N-(2,6-difluorophenyl)-5-[3-(2-{[4-{5-[(dimethylamino)methyl]-1,3,4-oxadiazol-2-yl}-2-(methyloxy)phenyl]amino}-4-pyrimidinyl)imidazo[1,2-a]pyridin-2-yl]-2-(methyloxy)benzamide], the IC50 in the assay on COLO205 (colon) is 250 to 1000 nM; in assay [1], less than 100 nM; in assay [2] it was greater than 500 nM.

Turning to `COc1cc(CCCN2CCCCC2)ccc1Nc1nccc(-c2c(-c3ccc(OC)c(C(=O)Nc4c(F)cccc4F)c3)nc3ccccn23)n1` [Example 140, N-(2,6-difluorophenyl)-2-(methyloxy)-5-{3-[2-({2-(methyloxy)-4-[3-(1-piperidinyl)propyl]phenyl}amino)-4-pyrimidinyl]imidazo[1,2-a]pyridin-2-yl}benzamide], the IC50 in the assay on COLO205 (colon) was 250 to 1000 nM; in assay [1] it was less than 100 nM; in assay [2] it was less than 100 nM.

Consider `COc1cc(N2CCC(N3CCC(O)CC3)CC2)ccc1Nc1nccc(-c2c(-c3cccc(C(=O)Nc4c(F)cccc4F)c3)nc3ccccn23)n1` [Example 80, N-(2,6-difluorophenyl)-3-[3-(2-{[4-(4-hydroxy-1,4′-bipiperidin-1′-yl)-2-(methyloxy)-phenyl]amino}-4-pyrimidinyl)imidazo[1,2-a]pyridin-2-yl]benzamide], for which the IC50 with COLO205 (colon) was less than 250 nM; in assay [1] it was less than 100 nM; in assay [2], less than 100 nM.

For `COc1cc(N2CCC(N3CCCCC3)CC2)c(F)cc1Nc1nccc(-c2c(-c3ccc(OC)c(C(=O)Nc4c(F)cccc4F)c3)nc3ccccn23)n1` [Example 107, 5-[3-(2-{[4-(1,4′-bipiperidin-1′-yl)-5-fluoro-2-(methyloxy)phenyl]amino}-4-pyrimidinyl)imidazo[1,2-a]pyridin-2-yl]-N-(2,6-difluorophenyl)-2-(methyloxy)benzamide], the IC50 was 250 to 1000 nM with COLO205 (colon), less than 100 nM in assay [1] and less than 100 nM in assay [2].

Consider `COc1cc(N2CCN(C3CCN(CCF)CC3)CC2)ccc1Nc1nccc(-c2c(-c3cccc(C(=O)Nc4c(F)cccc4F)c3)nc3ccccn23)n1` [Example 90, N-(2,6-difluorophenyl)-3-[3-(2-{[4-{4-[1-(2-fluoroethyl)-4-piperidinyl]-1-piperazinyl}-2-(methyloxy)phenyl]amino}-4-pyrimidinyl)imidazo[1,2-a]pyridin-2-yl]benzamide], for which the IC50 in the assay on COLO205 (colon) is 250 to 1000 nM; in assay [1], less than 100 nM; in assay [2], less than 100 nM.

As for `O=C(Nc1c(F)cccc1F)c1cccc(-c2nc3ccccn3c2-c2ccnc(Nc3ccc(N4CCC(N5CCCCC5)CC4)cc3)n2)c1` [Example 82, 3-[3-(2-{[4-(1,4′-bipiperidin-1′-yl)phenyl]amino}-4-pyrimidinyl)imidazo[1,2-a]pyridin-2-yl]-N-(2,6-difluorophenyl)benzamide], the half-inhibitory concentration (IC50) was less than 250 nM in the assay on COLO205 (colon), less than 100 nM in assay [1] and 100 to 500 nM in assay [2].

Regarding `COc1cc(N2CCC(O)CC2)ccc1Nc1nccc(-c2c(-c3ccc(OC)c(C(=O)Nc4c(F)cccc4F)c3)nc3ccccn23)n1` [Example 122, N-(2,6-difluorophenyl)-5-[3-(2-{[4-(4-hydroxy-1-piperidinyl)-2-(methyloxy)phenyl]amino}-4-pyrimidinyl)imidazo[1,2-a]pyridin-2-yl]-2-(methyloxy)benzamide], the IC50 in the assay with COLO205 (colon) was less than 250 nM; in assay [1] it was less than 100 nM; in assay [2], less than 100 nM.

For `COc1cc([C@H]2CC[C@@H](N3CCN(CCS(C)(=O)=O)CC3)CC2)ccc1Nc1nccc(-c2c(-c3cccc(C(=O)Nc4c(F)cccc4F)c3)nc3ccccn23)n1` [Example 93, N-(2,6-difluorophenyl)-3-[3-(2-{[2-(methyloxy)-4-(cis-4-{4-[2-(methylsulfonyl)-ethyl]-1-piperazinyl}cyclohexyl)phenyl]amino]-4-pyrimidinyl)imidazo[1,2-a]pyridin-2-yl]benzamide], the IC50 in the assay with COLO205 (colon) is 250 to 1000 nM; in assay [1] it was less than 100 nM; in assay [2], less than 100 nM.

With `COc1cc(N2CCC[C@@H](O)C2)ccc1Nc1nccc(-c2c(-c3cccc(C(=O)Nc4c(F)cccc4F)c3)nc3ccccn23)n1` [Example 170, N-(2,6-difluorophenyl)-3-[3-(2-{[4-[(3R)-3-hydroxy-1-piperidinyl]-2-(methyloxy)phenyl]amino}-4-pyrimidinyl)imidazo[1,2-a]pyridin-2-yl]benzamide], the IC50 in the assay with COLO205 (colon) is 250 to 1000 nM; in assay [1], less than 100 nM; in assay [2], 100 to 500 nM.

Take `COc1cc(N2CCC(N3CCCCC3)CC2)c(Cl)cc1Nc1nccc(-c2c(-c3cccc(C(=O)Nc4c(F)cccc4F)c3)nc3ccccn23)n1` [Example 104, 3-[3-(2-{[4-(1,4′-bipiperidin-1′-yl)-5-chloro-2-(methyloxy)phenyl]amino]-4-pyrimidinyl)imidazo[1,2-a]pyridin-2-yl]-N-(2,6-difluorophenyl)benzamide]: the IC50 in the assay with COLO205 (colon) is 250 to 1000 nM; in assay [1], less than 100 nM; in assay [2], less than 100 nM.

Consider `CCOc1cc(C2CCN(CCS(C)(=O)=O)CC2)ccc1Nc1nccc(-c2c(-c3cccc(C(=O)Nc4c(F)cccc4F)c3)nc3ccccn23)n1` [Example 183, N-(2,6-difluorophenyl)-3-(3-{2-[(2-(ethyloxy)-4-{1-[2-(methylsulfonyl)ethyl]-4-piperidinyl}phenyl)amino]-4-pyrimidinyl}imidazo[1,2-a]pyridin-2-yl)benzamide], for which the IC50 is 250 to 1000 nM in the assay on COLO205 (colon), less than 100 nM in assay [1] and less than 100 nM in assay [2].

On to `COc1cc(CCN2CCN(C)CC2)ccc1Nc1nccc(-c2c(-c3ccc(OC(C)C)c(C(=O)Nc4c(F)cccc4F)c3)nc3ccccn23)n1` [Example 134, N-(2,6-difluorophenyl)-2-isopropoxy-5-{3-[2-({2-methoxy-4-[2-(4-methylpiperazin-1-yl)ethyl]phenyl}amino)pyrimidin-4-yl]imidazo[1,2-a]pyridin-2-yl}benzamide], for which the IC50 in the assay on COLO205 (colon) is 250 to 1000 nM; in assay [1], less than 100 nM; in assay [2], less than 100 nM.

One may read the IC50 as the midpoint of a concentration-inhibition curve. A lower IC50 goes with greater potency in that assay.
